Source: patent publication US12492196B2, “Thienyloxazolones and analogues” (Bayer Aktiengesellschaft, priority 2019, dated 2025)
Marks after values point to notes of the source that are not given here.

Key:
Uromyces appendiculatus = test: In vivo preventive test on Uromyces appendiculatus (bean rust); conditions: for pest or weed control at 31 ppm / pest or weed control at 125 ppm / pest or weed control at 500 ppm: Uromyces appendiculatus, 240 h, bean, evaluated 10 days after inoculation, read-out: efficacy; for pest or weed control at 31 ppm: 31 ppm of active ingredient; for pest or weed control at 125 ppm: 125 ppm of active ingredient; for pest or weed control at 500 ppm: 500 ppm of active ingredient
Procedure: (§1) The tested active ingredients were prepared by homogenization in a mixture of acetone/Dimethyl sulfoxide/Tween®, and then diluted with water to obtain the desired active material concentration.
The young plants of bean were treated by spraying the active ingredient prepared as described above.
Control plants were treated only with an aqueous solution of acetone/Dimethyl sulfoxide/Tween®.
After 72 hours, the plants were contaminated by spraying the leaves with an aqueous suspension of Uromyces appendiculatus spores. The contaminated bean plants were incubated for 24 hours at 20° C. and at 100% relative humidity and then for 9 days at 20° C. and at 70-80% relative humidity.
The test was evaluated 10 days after the inoculation. 0% means an efficacy which corresponds to that of the control plants while an efficacy of 100% means that no disease was observed.
Compound CMP1 was tested in an in vivo preventive test on Uromyces appendiculatus (bean rust) in the same conditions as described in Example G.

[1] = test system: Xanthomonas campestris pv. campestris; test: In vivo preventive test on Xanthomonas campestris pv. campestris (black rot on cabbage); conditions: for pest or weed control at 31 ppm / pest or weed control at 125 ppm: Xanthomonas campestris, cabbage, evaluated 8 or 10 days after inoculation, read-out: efficacy; for pest or weed control at 31 ppm: 31 ppm of active ingredient; for pest or weed control at 125 ppm: 125 ppm of active ingredient
Procedure: as §1
(§2) The young plants of cabbage were treated by spraying the active ingredient prepared as described above. Control plants were treated only with an aqueous solution of acetone/Dimethyl sulfoxide/Tween®.
After 72 hours, the plants were contaminated by spraying the leaves with an aqueous bacteria suspension of Xanthomonas campestris pv. campestris. The contaminated cabbage plants were incubated for 8 or 10 days at 27° C. at 95% relative humidity.
The test was evaluated 8 or 10 days after the inoculation. 0% means an efficacy which corresponds to that of the control plants while an efficacy of 100% means that no disease was observed.
Compound CMP1 was tested in an in vivo preventive test on Xanthomonas campestris pv. campestris (black rot on cabbage) in the same conditions as described in Example F.

[2] = test system: Colletotrichum lindemuthianum; test: In vivo preventive test on Colletotrichum lindemuthianum (Antrachnose on bean); conditions: for pest or weed control at 31 ppm / pest or weed control at 500 ppm: Colletotrichum lindemuthianum, 144 h, bean, evaluated 6 days after inoculation, read-out: efficacy; for pest or weed control at 31 ppm: 31 ppm of active ingredient; for pest or weed control at 500 ppm: 500 ppm of active ingredient
Procedure: The tested active ingredients were prepared by homogenization in a mixture of acetone/Dimethyl sulfoxide/Tween®, and then diluted with water to obtain the desired active material concentration. The young plants of bean were treated by spraying the active ingredient prepared as described above. Control plants were treated only with an aqueous solution of acetone/Dimethyl sulfoxide/Tween®.
After 72 hours, the plants were contaminated by spraying the leaves with an aqueous suspension of Colletotrichum lindemuthianum spores. The contaminated bean plants were incubated for 24 hours at 20° C. and at 100% relative humidity and then for 5 days at 20° C. and at 90% relative humidity.
The test was evaluated 6 days after the inoculation. 0% means an efficacy which corresponds to that of the control plants while an efficacy of 100% means that no disease was observed.
Compound CMP1 was tested in an in vivo preventive test on Colletotrichum lindemuthianum (Antrachnose on bean) in the same conditions as described in Example D.

[3] = test system: salicylate responsive promoter sequence of the PR1 (pathogenesis-related protein I) gene (AT2G14610); test: Induction of defense gene expression in Arabidopsis thaliana (PR1 promoter-GFP reporter plants); format: in vivo; conditions: 72 h, 3rd day after spraying, mock treated leaves set as 1.00, read-out: relative fluorescence value; for fold induction at 75 ppm: 75 ppm of compound
Procedure: Arabidopsis thaliana reporter plants containing the coding sequence of a green fluorescent protein (GFP) linked to the salicylate responsive promoter sequence of the PR1 (pathogenesis-related protein I) gene (AT2G14610) were grown for five days and then sprayed with compounds. On the 3rd day after spraying, plant fluorescence was assessed with a MacroFluo instrument from Leica Microsystems (Wetzlar, Germany). Fluorescences were quantified with the Meta-Morph Microscopy Automation & Image Analysis Software (Molecular Devices, Sunnyvale, Calif., United States).
Background fluorescence in mock treated leaves was set as 1.00.

Peronospora parasitica = test: In vivo preventive test on Peronospora parasitica (crucifer downy mildew); conditions: Hyaloperonospora parasitica, 120 h; 125 ppm of active ingredient; cabbage; evaluated 5 days after inoculation; read-out: efficacy
Procedure: as §1, §2
After 72 hours, the plants were contaminated by spraying the leaves with an aqueous suspension of Peronospora parasitica spores. The contaminated cabbage plants were incubated for 5 days at 20° C. and at 100% relative humidity.
The test was evaluated 5 days after the inoculation. 0% means an efficacy which corresponds to that of the control plants while an efficacy of 100% means that no disease was observed.

[4] = test system: Xanthomonas campestris pv. campestris; test: Xanthomonas campestris pv. campestris in vitro cell test; format: cell-based; conditions: 20 ppm of active ingredient, 24 h incubation, read-out: efficacy (direct activity, inhibition of bacteria growth)
Procedure: Solvent: DMSO Culture medium: LB broth medium (Luria Broth Miller) Sigma Inoculum: bacteria suspension Compounds were solubilized in DMSO and the solution used to prepare the required range of concentrations. The final concentration of DMSO used in the assay was ≤1%. Inoculum was prepared from a pre-culture of bacteria grown in liquid medium and diluted to the desired optical density (OD). Compounds were evaluated for their ability to inhibit bacteria growth in liquid culture assay. The compounds were added in the desired concentrations to culture medium containing the bacteria suspension. After 24 h of incubation, the efficacy of compounds was determined by spectrometric measurement of bacteria growth. Inhibition was determined by comparing the absorbance values in wells containing the compounds with the absorbance in control wells without active ingredients.

[5] = test system: Colletotrichum lindemuthianum; test: Colletotrichum lindemuthianum in vitro cell test; format: cell-based; conditions: 144 h, 20 ppm of active ingredient, 6 days incubation, read-out: efficacy (direct activity, inhibition of fungal growth)
Procedure: Solvent: DMSO Culture medium: 14.6 g anhydrous D-glucose (VWR), 7.1 g Mycological Peptone (Oxoid), 1.4 g granulated Yeast Extract (Merck), QSP 1 liter Inoculum: spores suspension Fungicides were solubilized in DMSO and the solution used to prepare the required range of concentrations. The final concentration of DMSO used in the assay was ≤1%. A spore suspension of C. lindemuthianum was prepared and diluted to the desired spore density. Fungicides were evaluated for their ability to inhibit spores germination and mycelium growth in liquid culture assay. The compounds were added in the desired concentration to the culture medium with spores. After 6 days incubation, fungi-toxicity of compounds was determined by spectrometric measurement of mycelium growth. Inhibition of fungal growth was determined by comparing the absorbance values in wells containing the fungicides with the absorbance in control wells without fungicides.

[6] = Log P by HPLC on reversed phase columns (EEC directive 79/831 Annex V.A8); format: physicochemical
Procedure: In the above table, measurement of Log P values was performed according to EEC directive 79/831 Annex V.A8 by HPLC (High Performance Liquid Chromatography) on reversed phase columns with the following methods: • [^a] Log P value is determined by measurement of LC-UV, in an acidic range, with 0.1% formic acid in water and acetonitrile as eluent (linear gradient from 10% acetonitrile to 95% acetonitrile). • [^b] Log P value is determined by measurement of LC-UV, in a neutral range, with 0.001 molar ammonium acetate solution in water and acetonitrile as eluent (linear gradient from 10% acetonitrile to 95% acetonitrile). • [^c] Log P value is determined by measurement of LC-UV, in an acidic range, with 0.1% phosphoric acid and acetonitrile as eluent (linear gradient from 10% acetonitrile to 95% acetonitrile).
If more than one Log P value is available within the same method, all the values are given and separated by “+”.
Calibration was done with straight-chain alkan2-ones (with 3 to 16 carbon atoms) with known Log P values (measurement of Log P values using retention times with linear interpolation between successive alkanones). Lambda-max-values were determined using UV-spectra from 200 nm to 400 nm and the peak values of the chromatographic signals.

[7] = reversed phase HPLC columns, method [a]: LC-UV, acidic range, 0.1% formic acid in water and acetonitrile as eluent

Row | Compound | chromatographic logP [6, 7] | Efficacy (%) at 31 ppm (Uromyces appendiculatus; 31 ppm, arithmetic mean of 3 tests, conditions of Example G) | Efficacy (%) at 125 ppm (Uromyces appendiculatus; 125 ppm, arithmetic mean of 3 tests, conditions of Example G) | pest or weed control at 31 ppm (Uromyces appendiculatus) | pest or weed control at 125 ppm (Uromyces appendiculatus) | Efficacy (%) at 31 ppm ([1]; 31 ppm, arithmetic mean of 4 tests, conditions of Example F) | Efficacy (%) at 125 ppm ([1]; 125 ppm, arithmetic mean of 4 tests, conditions of Example F) | pest or weed control at 31 ppm [1] | pest or weed control at 125 ppm [1] | Efficacy (%) at 31 ppm ([2]; 31 ppm, conditions of Example D) | pest or weed control at 31 ppm [2] | pest or weed control at 500 ppm (Uromyces appendiculatus) | fold induction at 75 ppm [3] | fold induction at 300 ppm [3] | pest or weed control at 125 ppm (Peronospora parasitica) | inhibition at 20 ppm [4] | inhibition at 20 ppm [5] | pest or weed control at 500 ppm [2] | chromatographic logP ([6]; given in preparation examples, method not marked)
1 | O=C1OC(c2cc(Br)c(Br)s2)=NC12CC2 [CMP1, reference compound] | – | 32* % | 42* % | < 40% | 42% | 35* % | 37* % | < 40% | < 40% | 19% | < 20% | – | – | – | – | – | – | – | –
2 | Cc1c(C2=NC3(CC3)C(=O)O2)sc(C#N)c1Br [I.06, 3-bromo-4-methyl-5-(7-oxo-6-oxa-4-azaspiro[2.4]hept-4-en-5-yl)thiophene-2-carbonitrile] | – | – | – | 70 to 79% | 70 to 79% | – | – | 90 to 100% | 90 to 100% | – | – | 90 to 100% | > 2 | > 2 | 90 to 100% | ≤ 30% | ≤ 30% | 90 to 100% | 3.37
3 | Cc1c(C2=NC3(CC3)C(=O)O2)sc(Cl)c1Br [I.11] | 4.39 | – | – | 80 to 89% | 90 to 100% | – | – | 70 to 79% | 90 to 100% | – | – | 90 to 100% | > 2 | – | 90 to 100% | ≤ 30% | ≤ 30% | 90 to 100% | –
4 | O=C1OC(c2sc(Br)c(Br)c2F)=NC12CCC2 [I.13] | 4.02 | – | – | – | 90 to 100% | – | – | 90 to 100% | 80 to 89% | – | – | 90 to 100% | – | – | 90 to 100% | ≤ 30% | ≤ 30% | 90 to 100% | –
5 | O=C1OC(c2cc(Br)c(C(F)(F)F)s2)=NC12CC2 [I.26] | 3.98 | – | – | – | – | – | – | 70 to 79% | – | – | – | 90 to 100% | – | – | 90 to 100% | – | – | 70 to 79% | –

Continued, in another order:

Row | chromatographic logP [6, 7] | Compound | Efficacy (%) at 31 ppm (Uromyces appendiculatus; 31 ppm, arithmetic mean of 3 tests, conditions of Example G) | Efficacy (%) at 125 ppm (Uromyces appendiculatus; 125 ppm, arithmetic mean of 3 tests, conditions of Example G) | pest or weed control at 31 ppm (Uromyces appendiculatus) | pest or weed control at 125 ppm (Uromyces appendiculatus) | Efficacy (%) at 31 ppm ([1]; 31 ppm, arithmetic mean of 4 tests, conditions of Example F) | Efficacy (%) at 125 ppm ([1]; 125 ppm, arithmetic mean of 4 tests, conditions of Example F) | pest or weed control at 31 ppm [1] | pest or weed control at 125 ppm [1] | Efficacy (%) at 31 ppm ([2]; 31 ppm, conditions of Example D) | pest or weed control at 31 ppm [2] | pest or weed control at 500 ppm (Uromyces appendiculatus) | fold induction at 75 ppm [3] | fold induction at 300 ppm [3] | pest or weed control at 125 ppm (Peronospora parasitica) | inhibition at 20 ppm [4] | inhibition at 20 ppm [5] | pest or weed control at 500 ppm [2] | chromatographic logP ([6]; given in preparation examples, method not marked)
6 | 4.12 | O=C1OC(c2sc(Cl)c(Br)c2Br)=NC12CC2 [I.08] | – | – | 90 to 100% | 90 to 100% | – | – | 80 to 89% | 70 to 79% | – | – | 90 to 100% | > 2 | > 2 | 90 to 100% | ≤ 30% | ≤ 30% | 90 to 100% | –
7 | 4.01 | O=C1OC(c2sc(Cl)c(Br)c2Cl)=NC12CC2 [I.09] | – | – | 90 to 100% | 90 to 100% | – | – | 70 to 79% | – | – | 70 to 79% | 90 to 100% | > 2 | > 2 | 90 to 100% | ≤ 30% | ≤ 30% | 90 to 100% | –
8 | 4.32 | Cc1c(C2=NC3(CC3)C(=O)O2)sc(Br)c1Cl [I.12] | – | – | – | 90 to 100% | – | – | 70 to 79% | 90 to 100% | – | – | 90 to 100% | – | > 2 | 90 to 100% | ≤ 30% | ≤ 30% | 80 to 89% | –
9 | 4.55 | O=C1OC(c2sc(Cl)c(Cl)c2Br)=NC12CCC2 [I.22] | – | – | 90 to 100% | 90 to 100% | – | – | – | – | – | 80 to 89% | – | – | – | 90 to 100% | ≤ 30% | ≤ 30% | – | –
10 | 4.47 | O=C1OC(c2sc(Cl)c(Br)c2Cl)=NC12CCC2 [I.25] | – | – | 90 to 100% | 90 to 100% | – | – | – | – | – | 70 to 79% | – | – | – | – | ≤ 30% | ≤ 30% | – | –
